Patent US7977364B2, “Indazoles, benzisoxazoles and benzisothiazoles and their use as estrogenic agents” (Laboratoire Thermamex, priority 2004, dated 2011)
Where two headings read alike, the source gives them in different places. Blank lines part the entries; values can stand above or below the molecule they belong to.

How the values were obtained:
[1] = tested on: human endometrial adenocarcinoma Ishikawa cells; assay: Estrogenic and anti-estrogenic activities in vitro: induction of alkaline phosphatase (APase) activity; assay type: cell-based; conditions: Homo sapiens, Ishikawa, 96 h; compound alone, four days; ND = not detected; read-out: Estrogenic activity EC50 (nM) ± S.E.M
Procedure: The estrogenic and anti-estrogenic potentials of new compounds were evaluated using the induction of alkaline phosphatase (APase) activity, an estrogen specific response in human endometrial adenocarcinoma Ishikawa cells (Botella J., J Steroid Biochem Molec Biol, 1995, 55: 77-84; Littlefield et al., Endocrinology, 1990, 127: 2757-2762).
Ishikawa cells were routinely grown as monolayers in Dulbecco's Modified Eagle's medium (DMEM) containing 4 mM Glutamax I and supplemented with 10% of decomplemented fetal calf serum (dFCS) and antibiotics. They were maintained in a humidified atmosphere of 5% CO2 and 95% air, at 37±0.1° C. Stocks were performed once a week to maintain continuous exponential growth.
For studies, Ishikawa cells were plated into 96-well microplates. The next day, the medium was changed to a phenol red-free DMEM containing 5% dFCS stripped of endogenous estrogens by dextran coated charcoal treatment.
At the end of the incubation period, APase activity was assayed by a method involving the hydrolysis of p-nitrophenyl phosphate to p-nitrophenol at pH 9.8 and spectrophotometric determination of the product at 405 nm.
In brief, the microplates were first rinsed twice with cold phosphate buffered solution and then placed at −80° C. for at least 15 minutes. After thawing at room temperature for 5-10 minutes, the plates were put on ice and 50 μl ice-cold solution containing 5 mM p-nitrophenyl phosphate was added to each well. The plates were warmed to room temperature to allow for the development of the enzymatic reaction (t0). After a 15 to 60 minute incubation period, the intensity of the yellow color generated by the production of p-nitrophenol was measured into each well at 405 nm using a microplate reader (Wallac, model 1420 Victor^2). […] Sigmoidal dose-response curves were plotted and EC50 (estrogenic effect) and IC50 (anti-estrogenic effect) values were calculated for each compound.

[2] = tested on: human breast cancer cell line MCF-7; assay: Proliferative activity in vitro (ATP luminescence, 6 days); assay type: cell-based; conditions: Homo sapiens, MCF7, 144 h
Procedure: The proliferative effect of the compounds of the invention was evaluated on human breast cancer cell line MCF-7 by measuring the number of viable cells after 6 days of treatment.
MCF-7 cells were routinely cultured as monolayers in Dulbecco's modified Eagle's medium (DMEM) containing 4 mM Glutamax and 4.5 g/l glucose and supplemented with 5% (v/v) decomplemented fetal calf serum (dFCS) and antibiotics.
Cells were plated at 2.10^6 cells/75 cm^2 flasks and incubated at 37° C. in a humidified atmosphere containing 5% CO2. They were passaged once weekly to maintain continuous exponential growth. Forty eight hours before the start of an experiment, near-confluent cells were changed to a phenol red free DMEM containing 5% steroid-stripped dFCS by dextran coated charcoal treatment (DCC-DMEM). On the day of the experiment, cells were harvested by brief exposure to trypsin and plated in DCC-DMEM in 96-well microplates at a density of 4.10^3 cells/well. The next day, the medium was renewed and test compounds, diluted appropriately in estrogen-free DMEM, were added and incubated for six days. […] At the end of the incubation period, cell proliferation was evaluated by quantitation of the cellular ATP content which signals the presence of metabolically active cells.
The assay, based on the ATP-dependent luciferase reaction, enables generation of a luminescent signal proportional to the amount of ATP present. As there is a linear relationship between the amount of ATP and the number of viable cells present in culture, the luminescent signal allowed to precisely evaluate cell proliferation (Crouch, S. P. M. et al. J. Immunol. Meth., 1993, 160, 81; Kangas, L. et al. Med. Biol. 1984, 62, 338; Petty, R. D. et al. J. Biolum. Chemilum. 1995, 10, 29).
In brief, the microplates were inverted to discard the culture medium and 100 μl of fresh medium was added into each well. The microplates were equilibrated at room temperature for approximately 30 minutes. 100 μl of luciferase reagent was added into each well and contents were mixed for 2 minutes to induce cell lysis. The plates were incubated at room temperature for 10 minutes to stabilize luminescence signal.
Luminescence was recorded using a microplate reader (Wallac, model 1420 Victor^2) and results were expressed as percentage of the control luminescence. Sigmoidal dose-response curves were plotted and EC50 values were calculated for each compound in order to evaluate their proliferative potency.

Prepubescent female rats = assay: Estrogenic / uterotrophic activity in vivo (uterus wet weight); parameters: species or system rat; conditions: Rattus norvegicus, po, 72 h, orally 3 mg/rat/day for 3 days, read-out: % stimulation vs vehicle (uterus weight)
Procedure: Prepubescent female rats were orally treated at 3 mg/rat/day for 3 days. On the day following the last treatment, uteri were removed and wet weights were recorded.
The results are expressed as % of stimulation of uterus weight in comparison with vehicles. […]
Prepubescent female rats were orally treated with 0.3; 1; 3 or 10 mg/rat/day for 3 days. On the day following the last treatment, uteri were removed and wet weights were recorded.

rats = assay: Forced swimming test (antidepressant activity, immobility duration); assay type: in vivo, rat
Description: Antidepressant effect of estradiol was recently reported in studies using ER β KO mice model. In addition, ER β localization in dorsal raphe nucleus area in rat has been described. The gold standard test for antidepressant potency of compound consist in the forced swimming test, in this experiment antidepressants could be distinguished from psychostimulants which decreased immobility at doses which increased general activity. In order to investigate the putative antidepressant potency of the compounds reported here, the forced swimming test was performed according to the following design. The animals were housed six per cage under standard colony conditions, with a 12 h light/dark cycle and ad libitum food and water. They were allowed to acclimatize to the colony for at least 7 days prior to any experimentation. For subcutaneous administration, the compound of Example 23 was dissolved in olive oil and diluted to the desired concentration on the day of administration. For positive control, intraperitoneal (i.p.) injection of desipramine was done. Desipramine was dissolved in double-distilled water (10 mg/kg). The experiments were conducted 30 min after the positive control drug treatment (only for desipramine treatment). Other compounds, ie: estradiol and the compound of Example 23 were daily injected subcutaneously in rats, during a 7 days period. Acquisition were performed on day 8 (24 h after the last administration of items) and day 9 (48 h after estradiol or compound 23 administration), respectively. Data acquired 24 hours after the last administration consisted in the “naïve animal group”, these animals had never been previously tested in the device. Data acquired 48 hours after a last administration of compounds consisted in “trained animal group”.
On the 8th, the forced swim test was performed. This study was carried out in rats according to the methods described by Porsolt (Eur. J. Pharm., 1978). Briefly, rats were placed individually in glass cylinders (height: 40 cm, diameter: 18 cm) containing 25 cm of water at 25° C. Ten minutes later, rats were removed and dried before being returned to their home cages. The animals were replaced in the cylinders 24 h later, and the procedure was repeated, and a 10-min observation period was recorded.

ovariectomized rats = assay: Hot flush model in vivo: tail skin temperature, uteri and body weight; conditions: 3 mg/rat/day

- EC50 [1]: 0.1 ± 0.05 nM
- EC50 ([2]; read-out: Cell proliferation EC50 (nM) ± S.E.M): 0.01 nM
Compound: C[C@]12CC[C@@H]3c4ccc(O)cc4CC[C@H]3[C@@H]1CC[C@@H]2O [Example E2, 17β-estradiol, reference compound]
- activity at 1 µM ([2]; MCF-7, 10^−6 M, six days, read-out: Effect at 10^−6 M (% of control)): 205%
- activity at 0.01 µM ([2]; MCF-7, 10^−8 M, six days, read-out: Effect at 10^−8 M (% of control)): 212%
- change in vivo at 3 mg (Prepubescent female rats; Table 4): 526%
- change in vivo at 3 mg (Prepubescent female rats; Table 5): 333%
- immobility duration, Naïve animals (rats; 0.007 mg/rat/day s.c. 7 days, 24 h after last administration, 10 minutes test): 22.5 ± 7.1 s
- immobility duration, Trained animals (rats; 0.007 mg/rat/day s.c. 7 days, 48 h after last administration, 10 minutes test): 79.2 ± 23.0 s
- antidepressor potency (rats; 24 h and 48 h after administration, in words): confirmation of the antidepressor potency
- TST Variation day 1 vs day 0 (ovariectomized rats): −4.8 C. °
- TST Variation day 4 vs day 0 (ovariectomized rats): −3.5 C. °
- TST Variation day 7 vs day 0 (ovariectomized rats): −5.6 C. °
- Body weights (% increase vs vehicle) (ovariectomized rats; after one week treatment): −10%
- Uteri weight (% increase vs vehicle) (ovariectomized rats; after one week treatment): 273%

Compound: CNCCCN1c2ccccc2CCc2ccccc21 [desipramine, reference compound]
- immobility duration, Trained animals (rats; dosage 30 (mg/rat/day) as in table, i.p., 30 min before test, 10 minutes test): 2.6 ± 1.5 s
